Experimental data: PubChem BioAssay AID1963972 (Molecular Pharmacology Branch, DTP, NCI, 2024)

System: 945468-187-T-J2-PDC spheroids viability
Assay: Anticancer human tumor 945468-187-T-J2-PDC patient-derived rectal carcinoma cell line growth inhibition [PI3K]
Conditions: spheroids with HUVEC and MSC; for IC50: curve of first compound; for viability, T/C: stronger effect = lower value
How it was run: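 Stroma-containing spheroids: tumor line, pooled-donor HUVEC, hMSC. Treatments: targeted agents with PI3K inhibitors. Dosing: clinically relevant, half-log spacing, 10 microM ceiling without known Cmax. Read-out: cell viability.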
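Note: spheroids exposed to compounds for seven days before reading.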

For `CNC(=O)c1ccc(N2C(=S)N(c3ccc(C#N)c(C(F)(F)F)c3)C(=O)C2(C)C)cc1F` + Cc1nc(NC(=O)N2CCCC2C(N)=O)sc1-c1ccnc(C(C)(C)C(F)(F)F)c1, the IC50 (second compound 0.0316 µM) was > 10 µM, the IC50 (second compound 0.1 µM) was > 10 µM and the IC50 (second compound 0.316 µM) was > 10 µM. The IC50 (second compound 1 µM) was > 10 µM, the IC50 (second compound 3.16 µM) was > 10 µM and the IC50 (second compound 10 µM) was > 10 µM. The viability, T/C (second compound 0.0316 µM, first compound 0.0316 µM) was 116%, the viability, T/C (second compound 0.0316 µM, first compound 0.1 µM) was 103% and the viability, T/C (second compound 0.0316 µM, first compound 0.316 µM) was 88.8%. It also gave a viability, T/C (second compound 0.0316 µM, first compound 1 µM) of 106%, a viability, T/C (second compound 0.0316 µM, first compound 3.16 µM) of 108% and a viability, T/C (second compound 0.0316 µM, first compound 10 µM) of 102%. The viability, T/C (second compound 0.1 µM, first compound 0.0316 µM) was 95.4%, the viability, T/C (second compound 0.1 µM, first compound 0.1 µM) was 82% and the viability, T/C (second compound 0.1 µM, first compound 0.316 µM) was 91.3%. It also gave a viability, T/C (second compound 0.1 µM, first compound 1 µM) of 95.5%, a viability, T/C (second compound 0.1 µM, first compound 3.16 µM) of 102% and a viability, T/C (second compound 0.1 µM, first compound 10 µM) of 85.7%. For the same molecule, the viability, T/C (second compound 0.316 µM, first compound 0.0316 µM) was 108%, the viability, T/C (second compound 0.316 µM, first compound 0.1 µM) was 105% and the viability, T/C (second compound 0.316 µM, first compound 0.316 µM) was 91.5%. The viability, T/C (second compound 0.316 µM, first compound 1 µM) was 118%, the viability, T/C (second compound 0.316 µM, first compound 3.16 µM) was 85.5% and the viability, T/C (second compound 0.316 µM, first compound 10 µM) was 92.6%. It also gave a viability, T/C (second compound 1 µM, first compound 0.0316 µM) of 93.3%, a viability, T/C (second compound 1 µM, first compound 0.1 µM) of 86.2% and a viability, T/C (second compound 1 µM, first compound 0.316 µM) of 110%. For the same molecule, the viability, T/C (second compound 1 µM, first compound 1 µM) was 79.8%, the viability, T/C (second compound 1 µM, first compound 3.16 µM) was 78.4% and the viability, T/C (second compound 1 µM, first compound 10 µM) was 92.9%. The viability, T/C (second compound 3.16 µM, first compound 0.0316 µM) was 81.1%, the viability, T/C (second compound 3.16 µM, first compound 0.1 µM) was 85.8% and the viability, T/C (second compound 3.16 µM, first compound 0.316 µM) was 84.7%. The viability, T/C (second compound 3.16 µM, first compound 1 µM) was 83%, the viability, T/C (second compound 3.16 µM, first compound 3.16 µM) was 89% and the viability, T/C (second compound 3.16 µM, first compound 10 µM) was 83.6%. For the same molecule, the viability, T/C (second compound 10 µM, first compound 0.0316 µM) was 83.1%, the viability, T/C (second compound 10 µM, first compound 0.1 µM) was 68.5% and the viability, T/C (second compound 10 µM, first compound 0.316 µM) was 74.1%. For the same molecule, the viability, T/C (second compound 10 µM, first compound 1 µM) was 73.5%, the viability, T/C (second compound 10 µM, first compound 3.16 µM) was 72.6% and the viability, T/C (second compound 10 µM, first compound 10 µM) was 63.5%.
